The subject of this series is CCRIS mutagenicity, Ames/micronucleus/aberration tests. The series can be described thus: CCRIS mutagenicity studies.
Setting [1] is: Test System: AMES SALMONELLA TYPHIMURIUM, Strain/Indicator: TA98, Metabolic Activation: NONE, Method: PREINCUBATION
Where [2] appears, read: Test System: AMES SALMONELLA TYPHIMURIUM, Strain/Indicator: TA98, Metabolic Activation: RAT, LIVER, S-9, AROCLOR 1254, Method: PREINCUBATION
The mark [3] stands for this setting: Test System: AMES SALMONELLA TYPHIMURIUM, Strain/Indicator: TA100, Metabolic Activation: NONE, Method: PREINCUBATION
Setting [4] is: Test System: AMES SALMONELLA TYPHIMURIUM, Strain/Indicator: TA98, Metabolic Activation: NONE, Method: STANDARD PLATE.
[5] abbreviates: Test System: AMES SALMONELLA TYPHIMURIUM, Strain/Indicator: TA98, Metabolic Activation: RAT, LIVER, S-9, AROCLOR 1254, Method: STANDARD PLATE.
Setting [6] is: Test System: AMES SALMONELLA TYPHIMURIUM, Strain/Indicator: TA100, Metabolic Activation: NONE, Method: STANDARD PLATE.
Setting [7] is: Test System: AMES SALMONELLA TYPHIMURIUM, Strain/Indicator: TA1535, Metabolic Activation: NONE, Method: STANDARD PLATE.
[8] abbreviates: Test System: AMES SALMONELLA TYPHIMURIUM, Strain/Indicator: TA1537, Metabolic Activation: NONE, Method: STANDARD PLATE.
Setting [9] is: Test System: AMES SALMONELLA TYPHIMURIUM, Strain/Indicator: TA1538, Metabolic Activation: NONE, Method: STANDARD PLATE.

Structures are written as SMILES. Active and inactive are the calls of the source. No rule for the calls is given here.

Drawing on PubChem BioAssay AID1259407 (Chemical Carcinogenesis Research Information System (CCRIS), 2018), this text covers mutagenic call for nine compounds.

Take `NNc1nc(-c2ccc(N)cc2)cs1`: the mutagenic call was “active; positive” (Test System: AMES SALMONELLA TYPHIMURIUM, Strain/Indicator: TA98, Metabolic Activation: RAT, LIVER, S-9, KC500 OR PHENOBARBITAL, Method: LIQUID SUSPENSION) and “active; positive” (Test System: AMES SALMONELLA TYPHIMURIUM, Strain/Indicator: TA100, Metabolic Activation: RAT, LIVER, S-9, KC500 OR PHENOBARBITAL, Method: LIQUID SUSPENSION).
Take `N#[N+]c1cnc([O-])[nH]c1=O`: the mutagenic call was “active; positive” under setting [1]; “active; positive” under setting [2]; “active; positive” under setting [3]; “active; positive” (Test System: AMES SALMONELLA TYPHIMURIUM, Strain/Indicator: TA100, Metabolic Activation: RAT, LIVER, S-9, AROCLOR 1254, Method: PREINCUBATION).
As to `C/C=C/c1ccc(O)c(OC)c1`, the mutagenic call runs as follows: (End Point: E. coli, Test System: WP2uvrA/pKM101, Metabolic Activation: None, Method: Preincubation) “inactive; negative”; (End Point: E. coli, Test System: WP2uvrA/pKM101, Metabolic Activation: Rat, Liver, S-9, Aroclor 1254 (10%), Method: Preincubation) “inactive; negative”; (End Point: In vitro chromosomal aberrations, Test System: Chinese hamster ovary (CHO) cells, Metabolic Activation: None) “inactive; negative”; (End Point: In vitro chromosomal aberrations, Test System: Chinese hamster ovary (CHO) cells, Metabolic Activation: Rat, Liver, S-9, Aroclor 1254) “inactive; negative”; (End Point: In vivo micronucleus, Test System: Micronucleated normochromatic erythrocytes in perripheral blood, Species: Mouse, Strain/Sex: B6C3F1 / Female, Route: Oral) “active; positive”; (End Point: In vivo micronucleus, Test System: Micronucleated normochromatic erythrocytes in perripheral blood, Species: Mouse, Strain/Sex: B6C3F1 / Male, Route: Oral) “inactive; negative”. The mutagenic call by setting is: (Test System: AMES SALMONELLA TYPHIMURIUM, Strain/Indicator: TA97, Metabolic Activation: NONE, Method: PREINCUBATION) “inactive; negative”; (Test System: AMES SALMONELLA TYPHIMURIUM, Strain/Indicator: TA97, Metabolic Activation: RAT, LIVER, S-9, AROCLOR 1254, Method: PREINCUBATION) “inactive; negative”; (Test System: AMES SALMONELLA TYPHIMURIUM, Strain/Indicator: TA98, Metabolic Activation: HAMSTER, LIVER, S-9, AROCLOR 1254, Method: STANDARD PLATE) “inactive; negative”; under setting [4], “inactive; negative”; under setting [5], “inactive; negative”; (Test System: AMES SALMONELLA TYPHIMURIUM, Strain/Indicator: TA100, Metabolic Activation: HAMSTER, LIVER, S-9, AROCLOR 1254, Method: STANDARD PLATE) “inactive; negative”. In addition, the mutagenic call is “inactive; negative” under setting [6]; “inactive; negative” (Test System: AMES SALMONELLA TYPHIMURIUM, Strain/Indicator: TA100, Metabolic Activation: RAT, LIVER, S-9, AROCLOR 1254, Method: STANDARD PLATE); “inactive; negative” (Test System: AMES SALMONELLA TYPHIMURIUM, Strain/Indicator: TA102, Metabolic Activation: NONE, Method: PREINCUBATION); “inactive; negative” (Test System: AMES SALMONELLA TYPHIMURIUM, Strain/Indicator: TA102, Metabolic Activation: RAT, LIVER, S-9, AROCLOR 1254, Method: PREINCUBATION); “inactive; negative” (Test System: AMES SALMONELLA TYPHIMURIUM, Strain/Indicator: TA1535, Metabolic Activation: HAMSTER, LIVER, S-9, AROCLOR 1254, Method: STANDARD PLATE); “inactive; negative” under setting [7]. In addition, the mutagenic call (Test System: AMES SALMONELLA TYPHIMURIUM, Strain/Indicator: TA1535, Metabolic Activation: RAT, LIVER, S-9, AROCLOR 1254, Method: STANDARD PLATE) is “inactive; negative”; the mutagenic call (Test System: AMES SALMONELLA TYPHIMURIUM, Strain/Indicator: TA1537, Metabolic Activation: HAMSTER, LIVER, S-9, AROCLOR 1254, Method: STANDARD PLATE) is “inactive; negative”; the mutagenic call under setting [8] is “inactive; negative”; the mutagenic call (Test System: AMES SALMONELLA TYPHIMURIUM, Strain/Indicator: TA1537, Metabolic Activation: RAT, LIVER, S-9, AROCLOR 1254, Method: STANDARD PLATE) is “inactive; negative”; the mutagenic call (Test System: AMES SALMONELLA TYPHIMURIUM, Strain/Indicator: TA1538, Metabolic Activation: HAMSTER, LIVER, S-9, AROCLOR 1254, Method: STANDARD PLATE) was “inactive; negative”; the mutagenic call under setting [9] is “inactive; negative”. Besides, the mutagenic call is, setting by setting: (Test System: AMES SALMONELLA TYPHIMURIUM, Strain/Indicator: TA1538, Metabolic Activation: RAT, LIVER, S-9, AROCLOR 1254, Method: STANDARD PLATE) “inactive; negative”; (Test System: MOUSE LYMPHOMA, Strain/Indicator: L5178Y (TK+/TK-), Metabolic Activation: NONE, Method: SUSPENSION/PLATE) “active; positive. reevaluation of results: positive”; (Test System: MOUSE LYMPHOMA, Strain/Indicator: L5178Y (TK+/TK-), Metabolic Activation: RAT, LIVER, S-9, AROCLOR 1254, Method: SUSPENSION/PLATE) “inactive; negative. reevaluation of results: negative”.
As to `CCN(CC)c1ccc(N=Nc2c(Cl)cc([N+](=O)[O-])cc2[N+](=O)[O-])c(NC(C)=O)c1`, the mutagenic call (End Point: IN VITRO CHROMOSOMAL ABERRATIONS, Test System: CHL CELLS, Metabolic Activation: NONE) was “inactive; negative; precipitation of test chemical observed above 0.01 mg/ml”.
For `CN(C)c1ccc(N=Nc2ccc3ncsc3c2)cc1`, the mutagenic call is, setting by setting: under setting [2], “active; positive”; (Test System: AMES SALMONELLA TYPHIMURIUM, Strain/Indicator: TA98, Metabolic Activation: RAT, LIVER, S-9, AROCLOR, Method: PREINCUBATION) “active; positive”; (Test System: AMES SALMONELLA TYPHIMURIUM, Strain/Indicator: TA98, Metabolic Activation: RAT, LIVER, S-9, AROCLOR, Method: STANDARD PLATE) “active; positive”; (Test System: AMES SALMONELLA TYPHIMURIUM, Strain/Indicator: TA98, Metabolic Activation: RAT, LIVER, S-9, Method: PREINCUBATION) “active; positive”; (Test System: UDS RAT HEPATOCYTES, Strain/Indicator: THY INCORP, Metabolic Activation: NONE, Method: AUTORADIOGRAPHY) “active; positive”; (Test System: UDS RAT HEPATOCYTES, Strain/Indicator: THY INCORP, Metabolic Activation: NONE, Method: IN VIVO) “active; positive”. Moreover, under “Test System: UDS RODENT HEPATOCYTES, Strain/Indicator: THY INCORP (NON-S-PHASE), Metabolic Activation: NONE, Method: AUTORADIOGRAPHY”, the mutagenic call is “active; positive”.
For `O=[N+]([O-])c1c(O)cc2c3c(cccc13)-c1ccccc1-2`, the mutagenic call is, setting by setting: under setting [4], “active; positive”; under setting [5], “active; positive”.
Consider `ClCc1c2ccccc2cc2ccccc12`, for which the mutagenic call was “active; positive” under setting [1]; “active; positive” (Test System: AMES SALMONELLA TYPHIMURIUM, Strain/Indicator: TA98, Metabolic Activation: RAT, LIVER, S-9, PCB, Method: PREINCUBATION); “active; positive” under setting [3]; “active; positive” (Test System: AMES SALMONELLA TYPHIMURIUM, Strain/Indicator: TA100, Metabolic Activation: RAT, LIVER, S-9, PCB, Method: PREINCUBATION).
Take `Cc1ccc(-c2nc3n(c2[N+](=O)[O-])CCS3)cc1`: the mutagenic call by setting is: under setting [4], “inactive; negative”; under setting [6], “active; positive”; under setting [7], “inactive; negative”; under setting [8], “inactive; negative”; under setting [9], “inactive; negative”.
In the case of `C=C(C=O)C[C@@H]1C[C@H](O)[C@@H]2O[C@@H]3C[C@@H]4O[C@@H]5/C=C\C[C@@H]6O[C@H]7[C@H](C/C=C\C[C@H]6O[C@H]5CCC[C@H]4O[C@H]3C[C@H]2O1)O[C@@H]1C[C@@H]2O[C@@H]3CC(=O)O[C@H]3C[C@@H](C)C[C@@]2(C)O[C@H]1C[C@@H]7C`, where the note is “End Point: In vitro chromosomal aberrations, Test System: Chinese hamster ovary (CHO-K1-BH4) cells, Metabolic Activation: None”, the mutagenic call was “active; positive (structural changes)”.
